{"source": "paper PMC10064984", "about": "“Anti-cyclooxygenase, anti-glycation, and anti-skin aging effect of Dendrobium officinale flowers’ aqueous extract and its phytochemical validation in aging” (Frontiers in Immunology, 2023)", "assay_type_in_all_cases": "biochemical", "key": {"DPPH· scavenging": {"experiment": "DPPH· scavenging", "conditions": "mean ± SD, n = 3"}, "COX-2": {"molecular_target": "T1, COX-2 (Homo sapiens, UniProt P35354)", "T1 construct": "purchased Beyotime S0168", "T1 sequence (P35354 18-604)": "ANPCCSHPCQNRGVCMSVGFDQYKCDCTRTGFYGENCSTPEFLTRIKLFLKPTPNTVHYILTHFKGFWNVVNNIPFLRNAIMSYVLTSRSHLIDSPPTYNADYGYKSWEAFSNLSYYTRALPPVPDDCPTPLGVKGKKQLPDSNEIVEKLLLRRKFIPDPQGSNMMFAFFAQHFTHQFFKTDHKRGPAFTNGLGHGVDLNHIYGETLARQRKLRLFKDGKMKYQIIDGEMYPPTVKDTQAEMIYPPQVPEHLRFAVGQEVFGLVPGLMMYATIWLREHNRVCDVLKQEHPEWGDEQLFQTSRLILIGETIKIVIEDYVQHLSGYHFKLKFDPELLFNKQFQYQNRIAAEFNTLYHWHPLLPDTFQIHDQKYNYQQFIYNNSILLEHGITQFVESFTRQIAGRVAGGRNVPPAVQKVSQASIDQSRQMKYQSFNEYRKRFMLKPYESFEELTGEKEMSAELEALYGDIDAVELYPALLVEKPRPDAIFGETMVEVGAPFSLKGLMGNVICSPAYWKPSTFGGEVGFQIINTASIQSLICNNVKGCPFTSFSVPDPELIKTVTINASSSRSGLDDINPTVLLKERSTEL", "experiment": "Anti-COX-2 assay (COX-2 Inhibitor Screening Kit)"}, "[1]": {"experiment": "ABTS·+ decolourisation capacity", "conditions": "mean ± SD, n = 3", "protocol": "Fast colourimetric methods were slightly modified for the in vitro assessment of DPPH· scavenging ([19]), ABTS·+ decolourisation capacity ([20]), and total antioxidant capacity of FRAP ([21]). The stock solutions of derivatisation reagents were diluted as follows before measurement: DPPH was diluted with absolute ethanol until the absorbance was 0.8 ± 0.05 at λ = 517 nm. ABTS working solution was prepared with phosphate buffer (0.2 M, pH 7.4) to display absorbance of 0.8 ± 0.05 at λ = 729 nm, based on a previous study ([22]). The FRAP solution was prepared according to the instructions of the FRAP kit. Absorbances were measured using an automatic microplate reader (Molecular Group Ltd., USA), and all analyses were performed using 96-well plates. All measurements were performed in triplicate, and Trolox was used as a positive control.\nFor ABTS·+ decolourisation capacity, 100 μl of ABTS working solution was mixed with 200 μl of sample solution, and the absorbance was recorded after 10 min at 729 nm. Phosphate buffer (0.2 M, pH 7.4) was used as a negative control.\nDPPH· and ABTS·+ radical scavenging activities of the tested sample were both calculated using the following formula:\n% inhibition = (A control − A sample)/A control × 100\nWhere A control and A sample represent the absorbance of the control and test samples, respectively. The IC50 was calculated graphically from the dose-inhibition curves."}, "[2]": {"experiment": "Fluorescent AGEs formation in a BSA-fructose/glucose system", "conditions": "for inhibition of fluorescent AGEs formation (BSA-抗糖化), single replicate: individual replicate; for inhibition of fluorescent AGEs formation (BSA-抗糖化), 平均 (mean): mean of 3 replicates", "protocol": "Glycated protein was prepared in vitro by incubating BSA in the presence of D-glucose (GLC) and D-fructose (FRC). The DOF extract and specific standards were dissolved in DMSO:water (1:4). […] The assay was performed in triplicate, and AG was used as a positive control. The percentage inhibition of fluorescent AGE formation was calculated using the following equation: […] Where IF sample is fluorescence intensity in the presence of samples and BSA, IF sample control is fluorescence intensity in the presence of samples without BSA, IF control is fluorescence intensity without samples, and IF blank control is fluorescence intensity without samples and BSA."}, "[3]": {"experiment": "FRAP total antioxidant capacity;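 also: colourimetric FRAP kit assay read as absorbance in 96-well plates, values as mM FeSO4 via standard curve, EC1 being sample concentration matching 1.0 mmol/L FeSO4, Trolox positive control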", "conditions": "lower part of sheet (compound series)"}}, "note": "Values joined by “and” are separate entries in the source; they are usually repeats but may differ in a detail not shown here. Equal entries are not always repeated.", "data": [{"compound": "O=c1cc(-c2ccc(O)cc2)oc2c(C3OCC(O)C(O)C3O)c(O)c(C3OCC(O)C(O)C3O)c(O)c12", "note": "[compound 26, Apigenin-6-C-α-L-arabinoside-8-C-β-D-xyloside]", "values": [{"measurement": "IC50", "setting": "DPPH· scavenging", "result": "> 5000", "unit": "µM"}, {"measurement": "COX-2 inhibition (in words)", "setting": "COX-2", "result": "no inhibitory effects"}, {"measurement": "IC50", "setting": "[1]", "result": "80.36 ± 0.77", "unit": "µM"}, {"measurement": "inhibition of fluorescent AGEs formation (BSA-抗糖化), single replicate", "setting": "[2]; 15.625 µM, listed as T10, 15.625 µM", "result": "-0.15% and 0.19% and 0.09%"}, {"measurement": "inhibition of fluorescent AGEs formation (BSA-抗糖化), 平均 (mean)", "setting": "[2]; 15.625 µM", "result": 0.045, "unit": "%"}, {"measurement": "inhibition of fluorescent AGEs formation (BSA-抗糖化), single replicate", "setting": "[2]; 31.25 µM, listed as T10, 31.25 µM", "result": "6.49% and 8.31% and 6.26%"}, {"measurement": "inhibition of fluorescent AGEs formation (BSA-抗糖化), 平均 (mean)", "setting": "[2]; 31.25 µM", "result": 7.02, "unit": "%"}, {"measurement": "inhibition of fluorescent AGEs formation (BSA-抗糖化), single replicate", "setting": "[2]; 62.5 µM, listed as T10, 62.5 µM", "result": "15.98% and 16.92% and 15.72%"}, {"measurement": "inhibition of fluorescent AGEs formation (BSA-抗糖化), 平均 (mean)", "setting": "[2]; 62.5 µM", "result": 16.21, "unit": "%"}, {"measurement": "inhibition of fluorescent AGEs formation (BSA-抗糖化), single replicate", "setting": "[2]; 125 µM, listed as T10, 125 µM", "result": "27.64% and 28.36% and 29.90%"}, {"measurement": "inhibition of fluorescent AGEs formation (BSA-抗糖化), 平均 (mean)", "setting": "[2]; 125 µM", "result": 28.63, "unit": "%"}, {"measurement": "inhibition of fluorescent AGEs formation (BSA-抗糖化), single replicate", "setting": "[2]; 250 µM, listed as T10, 250 µM", "result": "48.76% and 48.06% and 47.15%"}, {"measurement": "inhibition of fluorescent AGEs formation (BSA-抗糖化), 平均 (mean)", "setting": "[2]; 250 µM", "result": 47.99, "unit": "%"}, {"measurement": "inhibition of fluorescent AGEs formation (BSA-抗糖化), single replicate", "setting": "[2]; 500 µM, listed as T10, 500 µM", "result": "67.27% and 67.99% and 65.66%"}, {"measurement": "inhibition of fluorescent AGEs formation (BSA-抗糖化), 平均 (mean)", "setting": "[2]; 500 µM", "result": 66.98, "unit": "%"}, {"measurement": "inhibition of fluorescent AGEs formation (BSA-抗糖化), single replicate", "setting": "[2]; 1000 µM, listed as T10, 1000 µM", "result": "82.36% and 81.32% and 81.69%"}, {"measurement": "inhibition of fluorescent AGEs formation (BSA-抗糖化), 平均 (mean)", "setting": "[2]; 1000 µM", "result": 81.79, "unit": "%"}, {"measurement": "inhibition of fluorescent AGEs formation (BSA-抗糖化), single replicate", "setting": "[2]; 2000 µM, listed as T10, 2000 µM", "result": "90.52% and 90.97% and 89.78%"}, {"measurement": "inhibition of fluorescent AGEs formation (BSA-抗糖化), 平均 (mean)", "setting": "[2]; 2000 µM", "result": 90.42, "unit": "%"}, {"measurement": "inhibition of fluorescent AGEs formation (BSA-抗糖化), single replicate", "setting": "[2]; 4000 µM (series head 'T9 4000µM', 2-fold dilutions), listed as T10", "result": "95.10% and 95.64% and 95.09%"}, {"measurement": "inhibition of fluorescent AGEs formation (BSA-抗糖化), 平均 (mean)", "setting": "[2]; 4000 µM", "result": 95.27, "unit": "%"}, {"measurement": "IC50", "setting": "[2]; mean ± SD, n = 3, read-out: BSA-glycation IC50", "result": "273 ± 4.7", "unit": "µM"}, {"measurement": "FRAP EC1", "setting": "[3]", "result": ">5000", "unit": "µM"}]}]}
